Columns and labels:
[1] = tested on: O. volvulus pre-adult L5; assay: Ov L5 viability by endpoint MTT assay; format: cell-based, Onchocerca volvulus; details: 1 µM
Procedure: Briefly, Ov L3 larvae were cultured to the pre-adult/L5 stage in vitro as described by Voronin et al., 2019 [45]. Once larvae reached the L5 stage (after at least 70 days in culture), 8–10 Ov L5 were moved to new transwell inserts in a 24-well plate containing 0.5 mL Ov L4-CMS media seeded with a 3 × 10^4/well Human Umbilical Vein Endothelial Cells (HUVEC) monolayer. Duplicate wells were treated with 1 and/or 10 µM of compound. Ov L5 were exposed to compounds for 14 days (exchanged 50% of media with fresh compound every two days) and then cultured with new media without compound, exchanging 50% of media every 2–3 days, up to day 36. Control Ov L5 were treated with 0.05% DMSO. […] Motility was assessed visually and ranked on a 0–100% scale every 2–3 days over the course of the assay. At the end of the motility assay, Ov L5 viability was measured by 3-(4,5-dimethylthiazol-2-yl)-2,5-diphenyltetrazolium bromide (MTT) assay. Ov L5 were incubated with 0.1% MTT in PBS at 37 °C for 1 h then visually inspected for blue coloration indicating MTT reduction. Worms were considered dead if <50% of the worm was stained blue, and worms were considered alive if >50% of the worm was stained blue.

[2] = tested on: O. ochengi adult males; assay: O. ochengi adult male motility assay; format: cell-based; details: Onchocerca ochengi, 120 h; read-out: O. ochengi Adult Males Inhibition of Motility Day 5 IC50
Source text: As humans are the only hosts for O. volvulus which are unavailable for screening, drug discovery relies on the surrogate filarial parasites Brugia spp. and cattle Onchocerca spp. Prioritized compounds from the Brugia worm screens were further tested with female and male adult O. ochengi as well as O. ochengi and L. loa mf.
For these assays, O. ochengi adults were extracted from the subcutaneous nodules of infected cow skins purchased from the local slaughterhouse (Douala, Littoral Region, Cameroon) and incubated in 4 mL complete culture media comprised of RPMI-1640 (Sigma-Aldrich), 5% newborn calf serum, 200 units/mL penicillin, 200 μg/mL streptomycin and 2.5 μg/mL amphotericin B (Sigma-Aldrich) in 12-well plates overnight to validate sterility prior to the assays. Four to eight O. ochengi adult masses were treated individually the following day with a serial dilution of each compound, and controls were treated with 1% DMSO. While in culture, the male worms normally egress from the nodules into the surrounding media and thus can be monitored in parallel for motility. The O. ochengi adult masses were incubated at 37 °C with 5% CO2 for the duration of the assay. Male motility within each well was visually scored every day and over 5 days after compound addition, and female viability within the nodules was assessed by MTT after 7 days as previously described. The O. ochengi adult masses containing female worms were individually placed in wells of a 48-well plate with 0.5 mL of 0.5 mg/mL MTT in PBS and incubated at 37 °C for 30 min. Female viability was visually rated by the degree of formazan production (live worms have blue coloration) in the female worm within the treated nodule versus control worm masses. […] Prism 4.0 for Windows was used to calculate IC50s.

[3] = Gerbil liver microsome stability assay; format: in vitro ADME
Procedure: Microsomal stability was tested using 1 µM of each test compound in a 96-well plate containing 0.5 mg/mL gerbil liver microsomes, 1 mM NADPH and/or UDPGA with alamethicin in a buffer of 100 mM potassium phosphate with 3 mM magnesium chloride at pH 7.4. Verapamil was used as a positive control. Reactions were incubated at 37 °C, and 100% acetonitrile with 0.1% formic acid was added at 0, 15, 30 and 60 min timepoints to stop the reaction. Samples were then separated over a Waters Atlantis T3 dC18 reverse phase HPLC column with 0.1% formic acid in water and 0.1% formic acid in acetonitrile. Samples were analyzed using an AB Sciex API 4000 LC–MS/MS.

[4] = tested on: Brugia pahangi; assay: Brugia pahangi/gerbil model of infection: worm and peritoneal mf counts at necropsy; format: in vivo; details: gerbil, 1 mg/kg IP once a day for 5 days, necropsy 13 weeks post-first dose; mean (SEM)
Procedure: Male Mongolian gerbils 50–60 g, 5–7 weeks in age (Meriones unguiculatus, Charles River Laboratories International, Inc., Wilmington, MA, USA) were injected intraperitoneally (IP) with 200 third-larval stage B. pahangi and treated a minimum of 3 months later when larvae developed into adult worms.
Animals were given IP doses of 1 mg/kg once a day for 5 days based on in vivo studies by Jones et al., 2009 [14] and gerbil PK analyses. Compounds are light sensitive and were shielded from light during formulation. Animals were necropsied 13 weeks post-first dose, and peritoneal cavities were washed with 100 mL of PBS to collect adult worms and mf that had been released from female worms. Adult worms were separated by sex, counted, and processed for subsequent analyses. Mf from the peritoneal cavities were quantified by mixing peritoneal wash 9:1 (v/v) with 0.04% methylene blue:water and counted using an inverted microscope.
Worm burden, peritoneal mf counts, overnight mf sheds and qPCR data were analyzed using a Kruskal–Wallis test followed by Dunn’s multiple comparison. To determine significant differences in embryograms, a two-way ANOVA was conducted with a Dunnett’s multiple comparisons test, and significance levels were determined based on comparisons with vehicle treated animals. All statistical analyses were determined using Prism 8 version 8.2.0(272).

[5] = tested on: Brugia pahangi adult females; assay: Transmission electron microscopy of B. pahangi adult females from treated gerbils; format: in vivo; details: females from gerbils treated with 1 mg/kg
Procedure: B. pahangi adult females recovered from gerbils treated with 1 mg/kg THP and analog 06 were prepared as above except worms were cut into approximately 5 mm long pieces taken from the center of the worm. Pieces were washed for one hour in 0.1 M sodium cacodylate followed by post-fixation in 1% osmium tetroxide for 1 h and again washed in the same buffer for another hour. Sample pieces were dehydrated using an increasing concentration of ethanol and resin (Durcupan, by Fluka) and transitioned using propylene oxide. Samples were left overnight in pure resin at 4 °C. Samples pieces were embedded using Beem capsules (Electron Microscopy Sciences) and cured at 60 °C overnight. All reagents were purchased from Electron Microscopy Sciences.
Blocks were trimmed and sectioned using a diamond knife on a Sorvall MT-6000 ultramicrotome, collected on formvar coated 1 mm slot grids and contrasted using uranyl acetate and lead citrate. Grids were imaged on a Philips CM100 transmission electron microscope at 80 kV and images were collected using a Gatan Orius imaging system.

[6] = tested on: Brugia pahangi adult females; assay: In vitro motility assay with adult female Brugia pahangi (Worminator)

Cc1ccc2c(ccc(/C=C/c3c(C)nn(-c4ccccc4)c3C)[n+]2C)c1.[I-] [Analog 06, 2-[(E)-2-(3,5-dimethyl-1-phenyl-1H-pyrazol-4-yl)ethenyl]-1,6-dimethylquinolin-1-ium iodide]
O. volvulus L5 % inhibition of viability Day 37 (MTT assay) [1]: 88% | IC50 [2]: 2750 nM | CLint ([3]; gerbil liver microsomes): 0.933 µL/min/mg Protein | half-life at 1 µM ([3]; pH 7.4, 1 µM compound, 0.5 mg/mL microsomes, read-out: Gerbil Liver Microsome T1/2): 24.7 h | Adult worms per animal [4]: 31.3 (11.8) | Female worms per animal [4]: 15.9 (5.7) | Male worms per animal [4]: 15.4 (6.1) | Mf per animal (peritoneal cavity) [4]: 915,000 (263,235) | Ultrastructure of gonads / developing microfilariae of female worms (TEM) ([5]; 1 mg/kg): more severe effect on the gonads | Ultrastructure of gonads / developing microfilariae of female worms (TEM) ([5]; listed as 06, 1 mg/kg): abnormal ultrastructural phenotypes | Brugia Adult Females Inhibition of Motility Day 3 @ 1 µM ([6]; 1 µM, Day 3, 1 µM): 71% | inhibition at 1 µM ([6]; Brugia pahangi, 72 h, read-out: Brugia Adult Females Inhibition of Motility Day 3 @ 1 µM, 1 µM, Day 3): > 70% | IC50 ([6]; Brugia pahangi, 72 h, read-out: Brugia Adult Females Inhibition of Motility Day 3 IC50): 733 nM | Brugia Adult Females Inhibition of Motility Day 3 IC50 ([6]; Day 3): sub-micromolar range
